These results are taken from US7947666B2, “2-methylene-(20S,25S)-19,26-dinor-vitamin D analogs” (Wisconsin Alumni Research Foundation, priority 2007, dated 2011).

Experiment [1] has as its system vitamin D-deficient rats. The experiment is described as follows: Bone calcium mobilization (serum calcium). Type of experiment: in vivo, rat. To be noted: for bone calcium mobilization (serum calcium levels): all dosages / overall, FIGS. 4A and 4B; for bone calcium mobilization (serum calcium): rats on low calcium diet (0.02%). As for the experimental part: (§1) Male, weanling Sprague-Dawley rats were placed on Diet 11 (0.47% Ca) diet +AEK oil for one week followed by Diet 11 (0.02% Ca) +AEK oil for 3 weeks. The rats were then switched to a diet containing 0.47% Ca for one week followed by two weeks on a diet containing 0.02% Ca. Dose administration began during the last week on 0.02% calcium diet. Four consecutive ip doses were given approximately 24 hours apart. Twenty-four hours after the last dose, blood was collected from the severed neck and the concentration of serum calcium determined as a measure of bone calcium mobilization. The first 10 cm of the intestine was also collected for intestinal calcium transport analysis using the everted gut sac method.
Calcium mobilization from bone and intestinal calcium absorption in vitamin D-deficient animals.

Experiment [2] deals with vitamin D-deficient rats. The experiment is described as follows: Intestinal calcium transport, everted gut sac method. Type of experiment: in vivo, rat. To be noted: for intestinal calcium transport: everted gut sac. As for the experimental part:
as §1
Intestinal calcium transport was evaluated in the same groups of animals using the everted gut sac method (FIGS. 5A and 5B).

The subject of a further experiment is HL-60 cells. The experiment is described as follows: HL-60 differentiation (nitro blue tetrazolium reduction). It counts as cell-based, human. To be noted: 4 days, NBT reduction, FIG. 2, read-out: EC50, HL-60 cell differentiation. As for the experimental part:
The study drugs were dissolved in ethanol and the concentrations determined using UV spectrophotometry. Serial dilutions were prepared so that a range of drug concentrations could be tested without changing the final concentration of ethanol (≦0.2%) present in the cell cultures.
Human promyelocytic leukemia (HL60) cells were grown in RPMI-1640 medium containing 10% fetal bovine serum. The cells were incubated at 37° C. in the presence of 5% CO2.
HL60 cells were plated at 1.2×10^5 cells/ml. Eighteen hours after plating, cells in duplicate were treated with drug. Four days later, the cells were harvested and a nitro blue tetrazolium reduction assay was performed (Collins et al., 1979; J. Exp. Med. 149:969-974). The percentage of differentiated cells was determined by counting a total of 200 cells and recording the number that contained intracellular black-blue formazan deposits. Verification of differentiation to monocytic cells was determined by measuring phagocytic activity (data not shown).

Experiment [3] relates to 24-hydroxylase (24Ohase) gene promoter. The experiment is described as follows: In vitro transcription assay, luciferase reporter in ROS 17/2.8 (bone) cells. To be noted: ROS 17/2.8 cells, 24-hydroxylase promoter luciferase, 16 h; FIG. 3; read-out: EC50, transcriptional activity in bone cells. Type of experiment: cell-based. As for the experimental part:
Transcription activity was measured in ROS 17/2.8 (bone) cells that were stably transfected with a 24-hydroxylase (24Ohase) gene promoter upstream of a luciferase reporter gene (Arbour et al., 1998). Cells were given a range of doses. Sixteen hours after dosing the cells were harvested and luciferase activities were measured using a luminometer.
RLU=relative luciferase units.

Setting [4] is: 260 pmol/day ip for 4 consecutive days.
Setting [5] is: 7020 pmol/day ip for 4 consecutive days.

Like-named read-outs stand apart in the source and are kept apart here.

For `C=C1/C(=C\C=C2/CCC[C@]3(C)[C@@H]([C@H](C)CCCC(C)(C)O)CC[C@@H]23)C[C@@H](O)C[C@@H]1O` [1,25(OH)2D3, 1α,25-dihydroxyvitamin D3, reference compound], the “bone calcium mobilization (serum calcium levels)” value in the experiment on vitamin D-deficient rats [1] is on record as “increased serum calcium levels at all dosages”. Also, in the experiment with vitamin D-deficient rats [2] (setting [4]), the intestinal calcium transport result is “promotes a significant increase”. The EC50 with HL-60 cells came to 2 nM.

For `C=C1[C@H](O)CC(=C/C=C2\CCC[C@@]3(C)C2CC[C@@H]3[C@@H](C)CCC[C@H](C)O)C[C@H]1O` (stereo partly drawn) [A4, 2-methylene-(20S,25S)-19,26-dinor-1α,25-dihydroxyvitamin D3], the EC50 in experiment [3] amounted to 0.03 nM; with HL-60 cells (Homo sapiens, 96 h) it was 0.5 nM. The “bone calcium mobilization (serum calcium)” value is “did not result in mobilization of bone calcium” in the experiment with vitamin D-deficient rats [1] (setting [4]) and “without any substantial effect” in the experiment with vitamin D-deficient rats [1] (setting [5]). Besides, the “bone calcium mobilization (serum calcium levels)” value in the experiment on vitamin D-deficient rats [1] is given as “very little bone calcium mobilization activity”. Moreover, the “times less potent than the native hormone in mobilizing bone calcium store” value in the experiment on vitamin D-deficient rats [1] (rats, compared to 1,25(OH)2D3, same increase in serum calcium) is “approximately 100 times”. Further, the intestinal calcium transport result in the experiment with vitamin D-deficient rats [2] (setting [4]) was “promotes intestinal calcium transport only slightly”; in the experiment on vitamin D-deficient rats [2] (setting [5]), “significant intestinal calcium transport activity”. Also, the “intestinal calcium transport activity compared to 1,25(OH)2D3” value in the experiment on vitamin D-deficient rats [2] (overall, FIGS. 5A and 5B, two batches of rats) is reported as “very little activity”.
